Test results reported in US10988477B2 (Merck Patent GmbH, priority 2018, dated 2021).

What was measured:
[1] = target: GCN2 kinase (Homo sapiens, UniProt Q9P2K8); experiment: GCN2 enzyme inhibition assay (Transcreener ADP2 fluorescence polarization); format: biochemical; details: 280 μM ATP
Outline: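 FP detection of ADP (antibody plus Alexa633 tracer) after a 1 h, 25 °C kinase reaction. Enzyme 4 nM, ATP 280 μM, (RS)7 peptide 200 μM, Tris pH 7.5 buffer with MgCl2 and DTT. Percent inhibition fitted by non-linear tight-binding algorithm for IC50 and Ki(app).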

[2] = target: intracellular GCN2 (phosphorylation of the GCN2 substrate eIF2α) (Homo sapiens, UniProt Q9P2K8); experiment: GCN2 cellular inhibition assay (AlphaScreen SureFire P-eIF2α Ser51, borrelidin-treated U2OS cells); format: cell-based; details: biomarker assay, phosphorylated eIF2α Ser51 in borrelidin-treated U2OS cells
Outline: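 Read-out: AlphaScreen SureFire phospho-eIF2α (Ser51) signal in U2OS lysates. Cells get 4-fold compound dilutions (top 40 μM final) plus 10 μM borrelidin, 1 h, 37 °C. Percent inhibition is relative to borrelidin-alone controls.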

[3] = compounds of Formula II, 4 nM GCN2 kinase
[4] = Enzyme activity for compounds of Formula IV, Ki(app), 25° C.

intracellular GCN2 (phosphorylation of the GCN2 substrate eIF2α), sequence (Q9P2K8 whole entry): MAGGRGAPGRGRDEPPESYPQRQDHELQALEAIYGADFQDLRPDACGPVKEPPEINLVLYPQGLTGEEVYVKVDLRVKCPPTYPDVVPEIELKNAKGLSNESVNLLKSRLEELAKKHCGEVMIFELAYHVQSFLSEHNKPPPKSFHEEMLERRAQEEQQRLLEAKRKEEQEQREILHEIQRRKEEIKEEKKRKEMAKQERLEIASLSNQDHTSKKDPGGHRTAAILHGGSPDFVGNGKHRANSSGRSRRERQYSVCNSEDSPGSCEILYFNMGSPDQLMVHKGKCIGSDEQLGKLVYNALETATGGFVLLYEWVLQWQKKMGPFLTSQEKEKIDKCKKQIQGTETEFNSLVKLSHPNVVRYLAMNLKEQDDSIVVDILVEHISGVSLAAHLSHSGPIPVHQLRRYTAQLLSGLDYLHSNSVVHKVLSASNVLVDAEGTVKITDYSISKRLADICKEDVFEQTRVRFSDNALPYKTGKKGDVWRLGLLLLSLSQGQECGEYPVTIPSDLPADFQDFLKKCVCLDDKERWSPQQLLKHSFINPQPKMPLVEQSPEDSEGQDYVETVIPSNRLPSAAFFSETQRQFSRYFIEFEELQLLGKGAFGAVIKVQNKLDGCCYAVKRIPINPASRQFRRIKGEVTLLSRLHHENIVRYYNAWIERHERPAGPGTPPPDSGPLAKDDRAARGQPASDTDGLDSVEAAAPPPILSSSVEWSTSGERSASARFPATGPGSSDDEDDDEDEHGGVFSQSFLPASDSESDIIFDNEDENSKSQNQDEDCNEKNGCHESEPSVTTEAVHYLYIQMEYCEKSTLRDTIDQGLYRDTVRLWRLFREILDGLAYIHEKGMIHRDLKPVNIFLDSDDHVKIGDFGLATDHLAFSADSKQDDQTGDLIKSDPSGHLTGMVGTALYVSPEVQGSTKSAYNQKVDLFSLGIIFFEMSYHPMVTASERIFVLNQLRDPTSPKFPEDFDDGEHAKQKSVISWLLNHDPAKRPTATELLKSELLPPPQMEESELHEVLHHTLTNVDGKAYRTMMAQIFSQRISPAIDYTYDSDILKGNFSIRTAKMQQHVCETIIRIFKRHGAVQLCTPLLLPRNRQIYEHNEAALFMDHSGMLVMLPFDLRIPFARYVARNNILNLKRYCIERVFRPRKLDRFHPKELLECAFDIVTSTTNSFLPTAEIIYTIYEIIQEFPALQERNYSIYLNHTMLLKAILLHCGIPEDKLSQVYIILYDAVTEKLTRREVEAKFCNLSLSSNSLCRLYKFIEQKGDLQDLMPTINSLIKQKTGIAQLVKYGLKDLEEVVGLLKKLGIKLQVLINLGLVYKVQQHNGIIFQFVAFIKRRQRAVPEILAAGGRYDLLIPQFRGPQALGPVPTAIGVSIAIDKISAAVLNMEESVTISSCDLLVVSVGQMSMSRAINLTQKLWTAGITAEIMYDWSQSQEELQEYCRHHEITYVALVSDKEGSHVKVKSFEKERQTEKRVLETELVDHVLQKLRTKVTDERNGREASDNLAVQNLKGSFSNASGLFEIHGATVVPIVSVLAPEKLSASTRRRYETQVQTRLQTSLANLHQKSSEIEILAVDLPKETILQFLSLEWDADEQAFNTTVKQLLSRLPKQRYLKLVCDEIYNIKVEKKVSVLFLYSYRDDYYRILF
GCN2 kinase, sequence (Q9P2K8 whole entry): as above

CC1C(NS(C)(=O)=O)CCCN1c1cc(-c2cnc3ccc(C(F)F)nn23)ncn1 (centres unmarked) [II-602, N-(1-(6-(6-(Difluoromethyl)imidazo[1,2-b]pyridazin-3-yl)pyrimidin-4-yl)-2-methylpiperidin-3-yl)methanesulfonamide]
Ki [1, 3]: < 10 nM
IC50 ([2]; compounds of Formula II): < 500 nM

FC(F)c1ccc2ncc(-c3ccnc(N4CCOC(c5cn[nH]c5)C4)c3)n2n1 (centres unmarked) [II-147, 4-(4-(6-(Difluoromethyl)imidazo[1,2-b]pyridazin-3-yl)pyridin-2-yl)-2-(1H-pyrazol-4-yl)morpholine]
Ki [1, 3]: 10 to 1000 nM
IC50 ([2]; compounds of Formula II): < 500 nM

CC1CN(c2cncc(-c3cnc4cnc(C(F)(F)F)cn34)n2)C(C)C(c2cn[nH]c2)N1 (single isomer, unassigned) [IV-649, 3-(6-(2,5-Dimethyl-3-(1H-pyrazol-4-yl)piperazin-1-yl)pyrazin-2-yl)-6-(trifluoromethyl)imidazo[1,2-a]pyrazine]
Ki [1, 4]: 100 to 1000 nM
IC50 ([2]; compounds of Formula IV): > 5000 nM

CS(=O)(=O)NCC1CN(c2cc(-c3cnc4ccc(C(F)F)nn34)ncn2)CC2(CC2)C1(F)F (centres unmarked) [II-528, N-((5-(6-(6-(Difluoromethyl)imidazo[1,2-b]pyridazin-3-yl)pyrimidin-4-yl)-8,8-difluoro-5-azaspiro[2.5]octan-7-yl)methyl)methanesulfonamide]
Ki [1, 3]: < 10 nM
IC50 ([2]; compounds of Formula II): < 500 nM

FC(F)(F)c1cn2c(-c3nccc(N4CCCOCC4)n3)cnc2cn1 [IV-427, 4-(2-(6-(Trifluoromethyl)imidazo[1,2-a]pyrazin-3-yl)pyrimidin-4-yl)-1,4-oxazepane]
Ki [1, 4]: 100 to 1000 nM
IC50 ([2]; compounds of Formula IV): > 5000 nM

CC1(C)CN(c2ccnc(-c3cnc4cnc(Cl)cn34)n2)CC(c2cn[nH]c2)N1 (centres unmarked) [IV-353, 6-Chloro-3-(4-(3,3-dimethyl-5-(1H-pyrazol-4-yl)piperazin-1-yl)pyrimidin-2-yl)imidazo[1,2-a]pyrazine]
Ki [1, 4]: 100 to 1000 nM
IC50 ([2]; compounds of Formula IV): 500 to 5000 nM

OCCC1CN(c2cc(-c3cnc4ccc(C(F)F)nn34)ncn2)CCO1 (centres unmarked) [II-498, 2-(4-(6-(6-(Difluoromethyl)imidazo[1,2-b]pyridazin-3-yl)pyrimidin-4-yl)morpholin-2-yl)ethan-1-ol]
Ki [1, 3]: 10 to 1000 nM
IC50 ([2]; compounds of Formula II): > 5000 nM

N#CCC1CCCN(c2ccnc(-c3cnc4cnc(C(F)F)cn34)n2)C1 (centres unmarked) [IV-82, 2-(1-(2-(6-(Difluoromethyl)imidazo[1,2-a]pyrazin-3-yl)pyrimidin-4-yl)piperidin-3-yl)acetonitrile]
Ki [1, 4]: 100 to 1000 nM
IC50 ([2]; compounds of Formula IV): > 5000 nM

CS(=O)(=O)CC1CCCN(c2cc(-c3cnc4ccc(C(F)F)nn34)ncn2)C1 (centres unmarked) [II-430, 6-(Difluoromethyl)-3-(6-(3-((methylsulfonyl)methyl)piperidin-1-yl)pyrimidin-4-yl)imidazo[1,2-b]pyridazine]
Ki [1, 3]: 10 to 1000 nM
IC50 ([2]; compounds of Formula II): 500 to 5000 nM

NS(=O)(=O)NCC1CCCN(c2cc(-c3cnc4ccc(C(F)F)nn34)ncn2)C1 (single isomer, unassigned) [II-278]
Ki [1, 3]: < 10 nM
IC50 ([2]; compounds of Formula II): < 500 nM

CC1C(c2cn[nH]c2)CCCN1c1ccnc(-c2cnc3cnc(C(F)(F)F)cn23)n1 (single isomer, unassigned) [IV-419, 3-(4-(2-Methyl-3-(1H-pyrazol-4-yl)piperidin-1-yl)pyrimidin-2-yl)-6-(trifluoromethyl)imidazo[1,2-a]pyrazine]
Ki [1, 4]: 100 to 1000 nM
IC50 ([2]; compounds of Formula IV): 500 to 5000 nM

Cc1nnc([C@@H]2CN(c3ccnc(-c4cnc5cnc(C(F)(F)F)cn45)n3)C[C@H](C)O2)o1 [IV-716]
Ki [1, 4]: 100 to 1000 nM
IC50 ([2]; compounds of Formula IV): > 5000 nM

Oc1cccc(-c2ccnc(-c3cnc4cnc(C(F)F)cn34)n2)c1 [IV-161, 3-(2-(6-(Difluoromethyl)imidazo[1,2-a]pyrazin-3-yl)pyrimidin-4-yl)phenol]
Ki [1, 4]: 100 to 1000 nM
IC50 ([2]; compounds of Formula IV): > 5000 nM

FC(F)c1cn2c(-c3nccc(N4CCOC(c5cn[nH]c5)C4)n3)cnc2cn1 (centres unmarked) [IV-28, 4-(2-(6-(Difluoromethyl)imidazo[1,2-a]pyrazin-3-yl)pyrimidin-4-yl)-2-(1H-pyrazol-4-yl)morpholine]
Ki [1, 4]: 10 to 100 nM
IC50 ([2]; compounds of Formula IV): 500 to 5000 nM

CC1CC(C)(O)C(CNS(C)(=O)=O)CN1c1cc(-c2cnc3ccc(C(F)F)nn23)ncn1 (centres unmarked) [II-365, N-((1-(6-(6-(Difluoromethyl)imidazo[1,2-b]pyridazin-3-yl)pyrimidin-4-yl)-4-hydroxy-4,6-dimethylpiperidin-3-yl)methyl)methanesulfonamide]
Ki [1, 3]: 10 to 1000 nM
IC50 ([2]; compounds of Formula II): > 5000 nM

FC(F)c1ccc2ncc(-c3cc(N4CC5(COC5)C4)ncn3)n2n1 [II-252, 6-(6-(6-(Difluoromethyl)imidazo[1,2-b]pyridazin-3-yl)pyrimidin-4-yl)-2-oxa-6-azaspiro[3.3]heptane]
Ki [1, 3]: 10 to 1000 nM
IC50 ([2]; compounds of Formula II): > 5000 nM

CC1CN(c2ccnc(-c3cnc4cnc(Br)cn34)n2)C(C)C(c2cn[nH]c2)N1 (single isomer, unassigned) [IV-288, 6-Bromo-3-(4-(2,5-dimethyl-3-(1H-pyrazol-4-yl)piperazin-1-yl)pyrimidin-2-yl)imidazo[1,2-a]pyrazine]
Ki [1, 4]: < 10 nM
IC50 ([2]; compounds of Formula IV): < 500 nM

CCS(=O)(=O)N[C@H]1CCCN(c2cc(-c3cnc4ccc(C(F)F)nn34)ncn2)C1 [II-421, (S)—N-(1-(6-(6-(Difluoromethyl)imidazo[1,2-b]pyridazin-3-yl)pyrimidin-4-yl)piperidin-3-yl)ethanesulfonamide]
Ki [1, 3]: 10 to 1000 nM
IC50 ([2]; compounds of Formula II): 500 to 5000 nM

CC1CN(c2cc(-c3cnc4ccc(C(F)(F)F)nn34)ncn2)CC(CNS(C)(=O)=O)C1(F)F (centres unmarked) [II-293, N-((4,4-Difluoro-5-methyl-1-(6-(6-(trifluoromethyl)imidazo[1,2-b]pyridazin-3-yl)pyrimidin-4-yl)piperidin-3-yl)methyl)methanesulfonamide]
Ki [1, 3]: 10 to 1000 nM
IC50 ([2]; compounds of Formula II): 500 to 5000 nM

CS(=O)(=O)NCC1CN(c2cc(-c3cnc4ccc(C(F)F)nn34)ncn2)CC(C2CC2)O1 (centres unmarked) [II-441, N-((6-Cyclopropyl-4-(6-(6-(difluoromethyl)imidazo[1,2-b]pyridazin-3-yl)pyrimidin-4-yl)morpholin-2-yl)methyl)methanesulfonamide]
Ki [1, 3]: 10 to 1000 nM
IC50 ([2]; compounds of Formula II): 500 to 5000 nM

FC(F)(F)c1cn2c(-c3nccc(N4CCC(c5cn[nH]c5)C4)n3)cnc2cn1 (centres unmarked) [IV-494, 3-(4-(3-(1H-Pyrazol-4-yl)pyrrolidin-1-yl)pyrimidin-2-yl)-6-(trifluoromethyl)imidazo[1,2-a]pyrazine]
Ki [1, 4]: 10 to 100 nM
IC50 ([2]; compounds of Formula IV): 500 to 5000 nM

Brc1cn2c(-c3nccc(N4CCCC(c5cn[nH]c5)C4)n3)cnc2cn1 (centres unmarked) [IV-346, 3-(4-(3-(1H-Pyrazol-4-yl)piperidin-1-yl)pyrimidin-2-yl)-6-bromoimidazo[1,2-a]pyrazine]
Ki [1, 4]: < 10 nM
IC50 ([2]; compounds of Formula IV): < 500 nM

CS(=O)(=O)NCC1CCCN(c2cc(-c3cnc4ccc(C(F)F)nn34)cc(N3CC4(CCN4)C3)n2)C1 (centres unmarked) [II-67, N-((1-(4-(6-(Difluoromethyl)imidazo[1,2-b]pyridazin-3-yl)-6-(1,6-diazaspiro[3.3]heptan-6-yl)pyridin-2-yl)piperidin-3-yl)methyl)methanesulfonamide]
Ki [1, 3]: < 10 nM
IC50 ([2]; compounds of Formula II): < 500 nM

NC(=O)C1CCN(c2cc(-c3cnc4ccc(C(F)F)nn34)ncn2)C1 (centres unmarked) [II-399, 1-(6-(6-(Difluoromethyl)imidazo[1,2-b]pyridazin-3-yl)pyrimidin-4-yl)pyrrolidine-3-carboxamide]
Ki [1, 3]: 10 to 1000 nM
IC50 ([2]; compounds of Formula II): > 5000 nM

OCC1CN(c2cc(-c3cnc4ccc(C(F)F)nn34)ncn2)CC2(COC2)O1 (centres unmarked) [II-343, (8-(6-(6-(Difluoromethyl)imidazo[1,2-b]pyridazin-3-yl)pyrimidin-4-yl)-2,5-dioxa-8-azaspiro[3.5]nonan-6-yl)methanol]
Ki [1, 3]: 10 to 1000 nM
IC50 ([2]; compounds of Formula II): > 5000 nM

CC1CC(C(=O)O)C(C)N(c2cc(-c3cnc4ccc(C(F)(F)F)nn34)ncn2)C1 (centres unmarked) [II-721, 2,5-Dimethyl-1-[6-[6-(trifluoromethyl)imidazo[1,2-b]pyridazin-3-yl]pyrimidin-4-yl]piperidine-3-carboxylic acid]
Ki [1, 3]: 10 to 1000 nM
IC50 ([2]; compounds of Formula II): 500 to 5000 nM

FC(F)(F)c1cn2c(-c3nccc(N4CC(c5cn[nH]c5)N5CCC[C@H]5C4)n3)cnc2cn1 (stereo partly drawn) [IV-679, 3-(4-((8aS)-4-(1H-Pyrazol-4-yl)hexahydropyrrolo[1,2-a]pyrazin-2(1H)-yl)pyrimidin-2-yl)-6-(trifluoromethyl)imidazo[1,2-a]pyrazine]
Ki [1, 4]: < 10 nM
IC50 ([2]; compounds of Formula IV): 500 to 5000 nM

CC1(CNS(C)(=O)=O)CCCN(c2cc(-c3cnc4ccc(C(F)F)nn34)ccn2)C1 (centres unmarked) [II-115, N-((1-(4-(6-(Difluoromethyl)imidazo[1,2-b]pyridazin-3-yl)pyridin-2-yl)-3-methylpiperidin-3-yl)methyl)methanesulfonamide]
Ki [1, 3]: 10 to 1000 nM
IC50 ([2]; compounds of Formula II): 500 to 5000 nM

C[C@H]1[C@@H](c2cn[nH]c2)CCCN1c1ccnc(-c2cnc3cnc(Br)cn23)n1 (relative stereo) [IV-387, Cis-6-Bromo-3-(4-(2-methyl-3-(1H-pyrazol-4-yl)piperidin-1-yl)pyrimidin-2-yl)imidazo[1,2-a]pyrazine]
Ki [1, 4]: < 10 nM
IC50 ([2]; compounds of Formula IV): < 500 nM

FC(F)c1ccc2ncc(-c3cc(N4CCC5C(C4)C5(F)F)ncn3)n2n1 (centres unmarked) [II-274, 3-(6-(7,7-Difluoro-3-azabicyclo[4.1.0]heptan-3-yl)pyrimidin-4-yl)-6-(difluoromethyl)imidazo[1,2-b]pyridazine]
Ki [1, 3]: 10 to 1000 nM
IC50 ([2]; compounds of Formula II): > 5000 nM

C[C@H]1CN(c2cc(-c3cnc4ccc(C(C)(F)F)nn34)ncn2)C[C@@H](CNS(C)(=O)=O)C1(F)F [II-321, N-(((3S,5S)-1-(6-(6-(1,1-Difluoroethyl)imidazo[1,2-b]pyridazin-3-yl)pyrimidin-4-yl)-4,4-difluoro-5-methylpiperidin-3-yl)methyl)methanesulfonamide]
Ki [1, 3]: 10 to 1000 nM
IC50 ([2]; compounds of Formula II): > 5000 nM
